Columns and labels:
Phakopsora pachyrhizi = assay: Test A: test suspension sprayed on soybean seedlings one day before inoculation with Phakopsora pachyrhizi spores (Asian soybean rust), visual disease rating; type: in vivo; conditions: 100 = 100% disease control, 0 = no control
Excerpt: General protocol for preparing test suspensions for Tests A-C: the test compounds were first dissolved in acetone in an amount equal to 3% of the final volume and then suspended at the desired concentration (in ppm) in acetone and purified water (50/50 mix by volume) containing 250 ppm of the surfactant PEG400 (polyhydric alcohol esters). The resulting test suspensions were then used in Tests A-C.
The test solution was sprayed to the point of run-off on soybean seedlings. The following day the seedlings were inoculated with a spore suspension of Phakopsora pachyrhizi (the causal agent of Asian soybean rust) and incubated in a saturated atmosphere at 22° C. for 24 h, and then moved to a growth chamber at 22° C. for 8 days, after which time visual disease ratings were made.
Results for Tests A-C are given in Table A. In the Table, a rating of 100 indicates 100% disease control and a rating of 0 indicates no disease control (relative to the controls). An asterisk “*” or a double asterisk “**” next to the rating value indicates a 50 ppm or 10 ppm test suspension was used, respectively. A dash (-) indicates the compound was not tested.

[1] = tested on: Puccinia recondita f. sp. tritici; assay: Test B: test suspension sprayed on wheat seedlings one day before inoculation with Puccinia recondita f. sp. tritici spores (wheat leaf rust), disease rating; type: in vivo; conditions: 100 = 100% disease control, 0 = no control
Excerpt: General protocol for preparing test suspensions for Tests A-C: the test compounds were first dissolved in acetone in an amount equal to 3% of the final volume and then suspended at the desired concentration (in ppm) in acetone and purified water (50/50 mix by volume) containing 250 ppm of the surfactant PEG400 (polyhydric alcohol esters). The resulting test suspensions were then used in Tests A-C. The test solution was sprayed to the point of run-off on wheat seedlings. The following day the seedlings were inoculated with a spore suspension of Puccinia recondita f. sp. tritici (the causal agent of wheat leaf rust) and incubated in a saturated atmosphere at 20° C. for 24 h, and then moved to a growth chamber at 20° C. for 6 days, after which time disease ratings were made. Results for Tests A-C are given in Table A. In the Table, a rating of 100 indicates 100% disease control and a rating of 0 indicates no disease control (relative to the controls). An asterisk “*” or a double asterisk “**” next to the rating value indicates a 50 ppm or 10 ppm test suspension was used, respectively. A dash (-) indicates the compound was not tested.

| Structure (SMILES) | Test A rating (disease control) (Phakopsora pachyrhizi; 10 ppm test suspension) | Test B rating (disease control) ([1]; 10 ppm test suspension) | also measured |
| --- | --- | --- | --- |
| CCOC(=O)C1=NOC(Cc2ccc(OC=C(OCC)C(F)(F)F)cc2)C1 (mixture of isomers) [compound 287] |  |  | Test A rating (disease control) (Phakopsora pachyrhizi; 50 ppm test suspension): 77%; Test B rating (disease control) ([1]; 50 ppm test suspension): 0% |
| CCOC(=COc1ccc(CC2CC(C(=O)N(C)C)=NO2)cc1)C(F)(F)F (mixture of isomers) [compound 288] |  |  | Test A rating (disease control) (Phakopsora pachyrhizi; 50 ppm test suspension): 96%; Test B rating (disease control) ([1]; 50 ppm test suspension): 0% |
| CCOC(=COc1ccc(CN2CCC(C(=O)OC)C2)cc1)C(F)(F)F (mixture of isomers) [compound 310] | 100% | 0% |  |
| CCOC(=O)c1cnn(Cc2ccc(OCC(O)(O)C(F)(F)F)cc2)c1 [Compound 1, ethyl 1-[[4-(3,3,3-trifluoro-2,2-dihydroxypropoxy)phenyl]methyl]-1H-pyrazole-4-carboxylate] |  |  | pest or weed control at 250 ppm (Phakopsora pachyrhizi; Phakopsora pachyrhizi, 250 ppm test suspension): 100%; pest or weed control at 250 ppm ([1]; 250 ppm test suspension): 91% |
| OC(O)(COc1ccc(OCC(O)(O)C(F)(F)F)cc1)C(F)(F)F [Compound 2] | 77% | 32% |  |
| CCOC(=O)c1cnn(Cc2ccc(OC(C)C(O)(O)C(F)(F)F)cc2)c1 (stereo not drawn) [Compound 5] | 0% | 0% |  |
| CCOC(=O)c1cnn(Cc2ccc(OCC(O)(NO)C(F)(F)F)cc2)c1 (stereo not drawn) [Compound 10] | 100% | 86% |  |
| CCOC(=O)c1cnn(Cc2ccc(OCC3(C(F)(F)F)OCC(C)(C)O3)cc2)c1 (stereo not drawn) [Compound 12, ethyl 1-[[4-[[4,4-dimethyl-2-(trifluoromethyl)-1,3-dioxolan-2-yl]methoxy]-phenyl]methyl]-1H-pyrazole-4-carboxylate] |  |  | pest or weed control at 10 ppm (Phakopsora pachyrhizi; Phakopsora pachyrhizi, 10 ppm test suspension): 13%; pest or weed control at 10 ppm ([1]; 10 ppm test suspension): 0% |
| CCOC(=O)c1cnn(Cc2ccc(OCC3(C(F)(F)F)OC(=O)CS3)cc2)c1 (stereo not drawn) [Compound 20] | 98% | 86% |  |
| CCOC(=O)c1cnn(Cc2ccc(OCC3(C(F)(F)F)NCCO3)cc2)c1 (stereo not drawn) [Compound 21] | 84% | 23% |  |
| CCS(=O)(=O)Cc1ccc(OCC(O)(O)C(F)(F)F)cc1 [Compound 29] | 84% | 28% |  |
| OC(O)(CCc1ccc(Cn2ccc3ccccc32)cc1)C(F)(F)F [Compound 30] | 0% | 0% |  |
| CS(=O)(=O)c1ccc(OCC(O)(O)C(F)(F)F)cc1 [Compound 31] | 44% | 93% |  |
| COC(=O)NN=Cc1ccc(OCC(O)(O)C(F)(F)F)cc1 [Compound 33] | 96% | 86% |  |
| CN(C)S(=O)(=O)c1ccc(OCC(O)(O)C(F)(F)F)cc1 [Compound 34] | 0% | 80% |  |
| CCOC(=O)c1cnn(C(C)c2ccc(OCC(O)(O)C(F)(F)F)cc2)c1 (stereo not drawn) [Compound 35] | 99% | 32% |  |
| O=C(NCC1CC1)c1cnn(Cc2ccc(OCC(O)(O)C(F)(F)F)cc2)c1 [Compound 36] | 70% | 0% |  |
| COC(=O)c1cnn(Cc2ccc(OCC(O)(O)C(F)(F)F)cc2)c1 [Compound 37] | 99% | 86% |  |
| C=CC(F)(F)OC(=O)c1cnn(Cc2ccc(OCC(O)(O)C(F)(F)F)cc2)c1 [Compound 38] | 97% | 89% |  |
| CC(C)OC(=O)c1cnn(Cc2ccc(OCC(O)(O)C(F)(F)F)cc2)c1 [Compound 39] | 91% | 79% |  |
| C=C(C)COC(=O)c1cnn(Cc2ccc(OCC(O)(O)C(F)(F)F)cc2)c1 [Compound 40] | 91% | 68% |  |

| Structure (SMILES) | Test A rating (disease control) (Phakopsora pachyrhizi; 10 ppm test suspension) | Test B rating (disease control) ([1]; 10 ppm test suspension) | also measured |
| --- | --- | --- | --- |
| CN(C)C(=O)C1=NOC(c2ccc(OCC(O)(O)C(F)(F)F)cc2)C1 (stereo not drawn) [Compound 41] | 92% | 23% |  |
| CCCOC(=O)c1cnn(Cc2ccc(OCC(O)(O)C(F)(F)F)cc2)c1 [Compound 42] | 99% | 85% |  |
| C=CCOC(=O)c1cnn(Cc2ccc(OCC(O)(O)C(F)(F)F)cc2)c1 [Compound 43] | 96% | 60% |  |
| C#CCOC(=O)c1cnn(Cc2ccc(OCC(O)(O)C(F)(F)F)cc2)c1 [Compound 44] | 97% | 85% |  |
| O=C(OCC(F)(F)F)c1cnn(Cc2ccc(OCC(O)(O)C(F)(F)F)cc2)c1 [Compound 45] | 87% | 85% |  |
| O=C(OCC(F)(F)C(F)(F)F)c1cnn(Cc2ccc(OCC(O)(O)C(F)(F)F)cc2)c1 [Compound 46] | 64% | 85% |  |
| O=C(OCc1ccccc1)c1cnn(Cc2ccc(OCC(O)(O)C(F)(F)F)cc2)c1 [Compound 47] |  |  | Test A rating (disease control) (Phakopsora pachyrhizi; 50 ppm test suspension): 100%; Test B rating (disease control) ([1]; 50 ppm test suspension): 95% |
| CCCCCCOC(=O)c1cnn(Cc2ccc(OCC(O)(O)C(F)(F)F)cc2)c1 [Compound 48] |  |  | Test A rating (disease control) (Phakopsora pachyrhizi; 50 ppm test suspension): 100%; Test B rating (disease control) ([1]; 50 ppm test suspension): 91% |
| O=C(OCc1ccc(Cl)c(Cl)c1)c1cnn(Cc2ccc(OCC(O)(O)C(F)(F)F)cc2)c1 [Compound 49] | 0% | 86% |  |
| O=C(OCc1ccc(F)c(F)c1)c1cnn(Cc2ccc(OCC(O)(O)C(F)(F)F)cc2)c1 [Compound 50] | 54% | 91% |  |
| CCOC(=O)c1cnn(Cc2ccc(C(O)CC(O)(O)C(F)(F)F)cc2)c1 (stereo not drawn) [Compound 51] | 0% | 0% |  |
| CCOC(=O)c1cnn(Cc2ccc(OCC3(C(F)(F)F)OCCCO3)cc2)c1 [Compound 52] | 99% | 0% |  |
| CCOC(=O)c1cnn(Cc2ccc(CCC(O)(O)C(F)(F)F)cc2)c1 [Compound 66] |  |  | Test A rating (disease control) (Phakopsora pachyrhizi; 50 ppm test suspension): 92%; Test B rating (disease control) ([1]; 50 ppm test suspension): 89% |
| O=C(NCC(F)(F)F)c1csc(Cc2ccc(OCC(O)(O)C(F)(F)F)cc2)n1 [Compound 68] | 100% | 95% |  |
| O=C(NCC1CC1)c1csc(Cc2ccc(OCC(O)(O)C(F)(F)F)cc2)n1 [Compound 69] | 98% | 96% |  |
| O=C(NCC(F)(F)F)c1csc(Cc2ccc(OCC3(C(F)(F)F)OCCO3)cc2)n1 [Compound 70] |  |  | Test A rating (disease control) (Phakopsora pachyrhizi; 250 ppm test suspension): 100%; Test B rating (disease control) ([1]; 250 ppm test suspension): 100% |
| CC(=O)c1ccc(OCC(O)(O)C(F)(F)F)cc1 [Compound 80] |  |  | Test A rating (disease control) (Phakopsora pachyrhizi; 50 ppm test suspension): 99%; Test B rating (disease control) ([1]; 50 ppm test suspension): 100% |
| CCO/C(=C\Oc1ccc(Cn2ncnc2C#N)cc1)C(F)(F)F [Compound 81] | 0% | 0% |  |
| CCO/C(=C\Oc1ccc(Cn2cnc(C#N)n2)cc1)C(F)(F)F [Compound 82] | 97% | 0% |  |
| CCOC(=O)C=CCOc1ccc(OCC(O)(O)C(F)(F)F)cc1 [Compound 97] |  |  | Test A rating (disease control) (Phakopsora pachyrhizi; 50 ppm test suspension): 94%; Test B rating (disease control) ([1]; 50 ppm test suspension): 0% |
| CCO/C(=C\Oc1ccc(Cn2ncnc2C(=O)OC)cc1)C(F)(F)F [Compound 122] | 0% | 0% |  |

Reference: patent publication US20220030868A1, “FUNGICIDAL HALOMETHYL KETONES AND HYDRATES” (FMC CORPORATION, priority 2018, published 2022)
